Assay results as given in PMC3351391, “Inhibition Mechanism and Model of an Angiotensin I-Converting Enzyme (ACE)-Inhibitory Hexapeptide from Yeast (Saccharomyces cerevisiae)” (PLoS ONE, 2012).
“Also recorded” adds a separate entry of the source. One block for each molecule: values may come before it. No end group written: not given here.

Assays:
ACE [1] = conditions: cited from earlier work; for mode of ACE inhibition (literature): compete with the substrate for binding to the active site
Procedure: In this study, we investigated the inhibition mechanism of the hexapeptide on the basis of its sequence to provide a reference for the design of drugs that target such enzymes as ACE. || To determine the inhibitory mechanism, Lineweaver-Burk plots were determined for the ACE-inhibitory peptide from yeast (TPTQQS). […] Thus, the peptide can combine with the ACE molecule to produce a dead-end complex, regardless of whether a substrate molecule is bound or not. The complex between ACE and TPTQQS can prevent the formation of the reaction product, HA. […] However, the amino acid sequence of this peptide is not in accordance with the results of structure-activity correlation studies on ACE-inhibitory peptides. […] In the present study, we demonstr ...

ACE [2] = experiment: Assay of ACE-inhibitory activity (HPLC, hippuric acid from HHL); assay type: biochemical; conditions: peptide 0.25 mmol/L (Fig. 4); HHL substrate, 0.1 mol/L Na-borate buffer pH 8.3; 5 min pre-incubation, 1 h at 37°C; RP-HPLC of HA at 228 nm
Procedure: (§1) The determination of ACE-inhibitory activity was performed using a High Performance Liquid Chromatography (HPLC) method, modified from a spectrophotometric method. HHL (Sigma, USA) was dissolved in 0.1 mol/L Na-borate buffer (pH 8.3) containing 1.55 mmol/L NaCl. ACE (Sigma, USA) was dissolved in the same buffer at a concentration of 0.2 U/mL. A mixture containing 10 µL of inhibitor and 5 µL of ACE solution was incubated at 37°C for 5 min, 50 µL of HHL solution was added, and the solution was incubated for 1 h. The reaction was stopped by adding 100 µL of 0.1% trifluoroacetic acid (TFA) (Sigma, USA). The amount of hippuric acid (HA) yielded by ACE catalysis was measured by RP-HPLC (GX-281, Gilson, France) with an octadecylsilyl (ODS) column (4.6 mm×250 mm, 5 µm, Agilent, USA). The mobile phase was 60% methanol (V/V) containing 0.1% TFA at a flow rate of 0.8 mL/min. The effluent was monitored at 228 nm. The ACE-inhibitory activity was calculated using Equation (1) as follows: [drawing 1] (1) where A is the content of HA generated in the presence of an ACE inhibitor, B is the content of HA generated without an ACE inhibitor, and C is the content of HA generated without ACE.

ACE [3] = molecular target: T1, ACE (Oryctolagus cuniculus, UniProt P12822); experiment: ITC titration of HHL into ACE in presence of inhibitor; assay type: binding; conditions: 0.024 µmol/L ACE and 0.13 µmol/L TPTQQS titrated with 1.55 mmol/L HHL; 37°C; pH 8.3
T1 construct: purchased Sigma, USA
T1 sequence (P12822 34-1310): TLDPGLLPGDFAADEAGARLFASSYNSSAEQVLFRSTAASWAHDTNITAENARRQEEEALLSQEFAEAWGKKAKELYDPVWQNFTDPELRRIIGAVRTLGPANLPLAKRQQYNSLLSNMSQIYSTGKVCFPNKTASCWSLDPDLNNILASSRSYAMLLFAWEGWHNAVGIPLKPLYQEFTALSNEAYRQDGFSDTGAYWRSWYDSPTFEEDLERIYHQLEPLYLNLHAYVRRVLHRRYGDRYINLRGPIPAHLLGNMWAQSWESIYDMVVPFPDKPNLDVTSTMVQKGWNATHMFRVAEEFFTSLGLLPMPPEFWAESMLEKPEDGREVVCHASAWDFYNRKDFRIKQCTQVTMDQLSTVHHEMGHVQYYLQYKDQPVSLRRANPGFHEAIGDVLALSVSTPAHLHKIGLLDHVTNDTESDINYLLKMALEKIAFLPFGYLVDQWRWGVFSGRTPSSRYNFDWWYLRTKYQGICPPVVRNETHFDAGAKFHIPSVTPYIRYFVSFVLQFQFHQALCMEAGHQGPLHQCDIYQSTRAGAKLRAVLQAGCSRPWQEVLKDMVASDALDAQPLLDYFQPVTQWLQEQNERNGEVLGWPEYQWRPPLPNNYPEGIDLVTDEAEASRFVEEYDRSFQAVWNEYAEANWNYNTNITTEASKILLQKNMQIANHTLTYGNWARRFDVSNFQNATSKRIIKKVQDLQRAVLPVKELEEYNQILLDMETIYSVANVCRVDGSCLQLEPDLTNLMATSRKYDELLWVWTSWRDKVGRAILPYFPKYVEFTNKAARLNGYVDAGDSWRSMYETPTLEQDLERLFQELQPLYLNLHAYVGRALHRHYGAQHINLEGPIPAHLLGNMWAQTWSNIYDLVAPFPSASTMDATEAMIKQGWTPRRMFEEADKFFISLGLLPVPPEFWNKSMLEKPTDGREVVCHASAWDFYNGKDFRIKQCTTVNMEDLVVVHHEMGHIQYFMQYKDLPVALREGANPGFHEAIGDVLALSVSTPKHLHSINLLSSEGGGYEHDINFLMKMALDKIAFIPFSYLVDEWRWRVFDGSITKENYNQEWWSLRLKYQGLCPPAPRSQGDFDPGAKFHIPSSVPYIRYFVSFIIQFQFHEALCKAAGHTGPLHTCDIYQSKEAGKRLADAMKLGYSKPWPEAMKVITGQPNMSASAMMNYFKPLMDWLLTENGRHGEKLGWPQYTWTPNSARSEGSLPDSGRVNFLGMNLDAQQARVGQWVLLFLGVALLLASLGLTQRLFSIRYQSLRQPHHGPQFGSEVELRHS
Procedure: The isothermal titration calorimetry (ITC) experiments were carried out using a Nano ITC Low Volume System (TA Instruments-Waters LLC., USA) with a 190 µL cell. All of the experiments were performed at 37°C. ACE was prepared by diluting the stock solution in a buffer of the appropriate pH; the substrate was dissolved in the same buffer as the enzyme. In a control experiment, the ITC cell was filled with 0.024 µmol/L ACE (250 µL), and the ACE solution was titrated with 1.55 mmol/L HHL. The injection volume was […], and the time between two injections was 300 s during which the substrate was completely hydrolyzed. In the inhibition experiment, the ITC cell was filled with 0.024 µmol/L ACE and 0.13 µmol/L TPTQQS (250 µL), and the solution was titrated with 1.55 mmol/L HHL. The titration conditions were the same as those for the control experiment.

ACE [4] = experiment: Inhibition kinetics of ACE (Lineweaver-Burk plots, HHL substrate); assay type: biochemical; conditions: 100 and 200 µg/mL inhibitor; HHL 0.78, 1.55, 3.10 mM; Na-borate pH 8.3; 37°C
Procedure: as §1, with “The mobile phase was 60% methanol (V/V) containing 0.1% TFA at a flow rate of 0.8 mL/min.” left out, “(1) where A is the content of HA generated in the presence of an ACE inhibitor, B is the content of HA generated without an ACE inhibitor, and C is the content of HA generated without ACE.” left out
Inhibition kinetics of TPTQQS- Various substrate (HHL) concentrations (0.78 mM, 1.55 mM, and 3.10 mM) were incubated with the ACE solution in the presence or absence of 100 µg/mL, of 200 µg/mL TPTQQS at 37°C. The ACE-inhibitory activity was determined as described as described in the “Assay of ACE-inhibitory activity". The kinetics of ACE in the presence of the inhibitory peptide was determined using Lineweaver-Burk plots.

Molecule: NCCCC[C@H](N[C@@H](CCc1ccccc1)C(=O)O)C(=O)N1CCC[C@H]1C(=O)O [lisinopril]
mode of ACE inhibition (literature) (ACE [1]): Competitive inhibition

Molecule: C[C@H](CS)C(=O)N1CCC[C@H]1C(=O)O [captopril]
mode of ACE inhibition (literature) (ACE [1]): Competitive inhibition

mode of ACE inhibition by ITC (ACE [3]): non-competitive
Molecule: TPTQQS [TPTQQS]
inhibition rate (ACE [2]): 72.55%
affinity of HHL for ACE in the presence of inhibitor, ITC (ACE [3]): the same as that in the control experiment
ACE-inhibitory activity (literature, in words) (ACE [1]; isolated from hydrolyzed yeast protein): effective ACE-inhibitory peptide; also recorded: highly active
mode of ACE inhibition (Lineweaver-Burk) (ACE [4]): non-competitive inhibitor

Molecule: CCOC(=O)[C@H](CCc1ccccc1)N[C@@H](C)C(=O)N1CCC[C@H]1C(=O)O [enalapril]
mode of ACE inhibition (literature) (ACE [1]): Competitive inhibition
